Reference: PubChem BioAssay AID272 (DTP/NCI, 2004)
“And” between values parts separate entries of the source, which are not always exact repeats. Equal entries are not always repeated. Inconclusive results are not listed.

System: Lewis lung carcinoma i.m., BDF1 mice, T/C %
Assay: NCI In Vivo Anticancer Drug Screen. Data for tumor model Lewis Lung Carcinoma (intramuscular) in B6D2F1 (BDF1) mice
Method in brief: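 Compound given to mice with transplantable tumours; survival or tumour size compared against the vehicle control group, reported as T divided by C.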

[1] = endpoint: median survival time, dose: 1.25 mg/kg/injection, schedule: Q01DX011 (ip), vehicle: saline, higher = longer survival

Nc1ncn(C2OC(CO)C(O)C2O)c(=O)n1 (stereo not drawn)
T/C (endpoint: mean tumor weight, dose: 0.19 mg/kg/injection, schedule: Q01DX011 (ip), vehicle: saline, higher = larger tumour): 105 % of control
T/C (endpoint: mean tumor weight, dose: 0.38 mg/kg/injection, schedule: Q01DX011 (ip), vehicle: saline, higher = larger tumour): 82 % of control
T/C (endpoint: median survival time, dose: 0.1 mg/kg/injection, schedule: Q01DX011 (ip), vehicle: saline, higher = longer survival): 93 % of control
T/C (endpoint: median survival time, dose: 0.19 mg/kg/injection, schedule: Q01DX011 (ip), vehicle: saline, higher = longer survival): 104 % of control
T/C (endpoint: median survival time, dose: 0.2 mg/kg/injection, schedule: Q01DX011 (ip), vehicle: saline, higher = longer survival): 106 % of control and 109 % of control
T/C (endpoint: median survival time, dose: 0.38 mg/kg/injection, schedule: Q01DX011 (ip), vehicle: saline, higher = longer survival): 90 % of control and 110 % of control
T/C (endpoint: median survival time, dose: 0.4 mg/kg/injection, schedule: Q01DX011 (ip), vehicle: saline, higher = longer survival): 105 % of control and 124 % of control
T/C (endpoint: median survival time, dose: 0.75 mg/kg/injection, schedule: Q01DX011 (ip), vehicle: saline, higher = longer survival): 112 % of control
T/C (endpoint: median survival time, dose: 0.8 mg/kg/injection, schedule: Q01DX011 (ip), vehicle: saline, higher = longer survival): 106 % of control
T/C (endpoint: median survival time, dose: 1.5 mg/kg/injection, schedule: Q01DX011 (ip), vehicle: saline, higher = longer survival): 108 % of control

Nc1nc(N)c2nc(CNc3ccc(C(=O)NC(CCC(=O)O)C(=O)O)cc3)cnc2n1 (stereo not drawn)
T/C (endpoint: median survival time, dose: 4.0 micrograms/kg/injection, schedule: Q01DX011 (ip), vehicle: other, higher = longer survival): 97 % of control
T/C (endpoint: median survival time, dose: 8.0 micrograms/kg/injection, schedule: Q01DX011 (ip), vehicle: other, higher = longer survival): 86 % of control
T/C (endpoint: median survival time, dose: 16.0 micrograms/kg/injection, schedule: Q01DX011 (ip), vehicle: other, higher = longer survival): 100 % of control
T/C (endpoint: median survival time, dose: 32.0 micrograms/kg/injection, schedule: Q01DX011 (ip), vehicle: other, higher = longer survival): 109 % of control
T/C (endpoint: median survival time, dose: 65.0 micrograms/kg/injection, schedule: Q01DX011 (ip), vehicle: other, higher = longer survival): 95 % of control

C[C@@H]1O[C@@H](O[C@H]2CC[C@]3(C=O)[C@H]4CC[C@]5(C)[C@@H](c6ccc(=O)oc6)CC[C@]5(O)[C@@H]4CC[C@]3(O)C2)[C@H](O)[C@H](O)[C@H]1O[C@@H]1O[C@H](CO)[C@@H](O)[C@H](O)[C@H]1O
T/C (endpoint: mean tumor weight (est.), dose: 0.63 mg/kg/injection, schedule: Q01DX011 (ip), vehicle: saline, higher = larger tumour): 80 % of control
T/C (endpoint: mean tumor weight (est.), dose: 1.25 mg/kg/injection, schedule: Q01DX011 (ip), vehicle: saline, higher = larger tumour): 89 % of control
T/C (endpoint: median survival time, dose: 0.63 mg/kg/injection, schedule: Q01DX011 (ip), vehicle: saline, higher = longer survival): 108 % of control
T/C [1]: 98 % of control

Nc1cc(S(N)(=O)=O)ccc1SSc1ccc(S(N)(=O)=O)cc1N
T/C (endpoint: mean tumor weight (est.), dose: 62.5 mg/kg/injection, schedule: Q01DX011 (ip), vehicle: saline with Tween-80, higher = larger tumour): 65 % of control
T/C (endpoint: mean tumor weight (est.), dose: 125.0 mg/kg/injection, schedule: Q01DX011 (ip), vehicle: saline with Tween-80, higher = larger tumour): 24 % of control
T/C (endpoint: median survival time, dose: 62.5 mg/kg/injection, schedule: Q01DX011 (ip), vehicle: saline with Tween-80, higher = longer survival): 103 % of control
T/C (endpoint: median survival time, dose: 125.0 mg/kg/injection, schedule: Q01DX011 (ip), vehicle: saline with Tween-80, higher = longer survival): 98 % of control

CCN(CC)CCCC(C)Nc1c2ccccc2nc2c(Cl)cccc12 (stereo not drawn)
T/C (endpoint: mean tumor weight (est.), dose: 7.5 mg/kg/injection, schedule: Q01DX011 (ip), vehicle: saline, higher = larger tumour): 81 % of control
T/C (endpoint: mean tumor weight (est.), dose: 15.0 mg/kg/injection, schedule: Q01DX011 (ip), vehicle: saline, higher = larger tumour): 96 % of control
T/C (endpoint: mean tumor weight (est.), dose: 30.0 mg/kg/injection, schedule: Q01DX011 (ip), vehicle: saline, higher = larger tumour): 95 % of control

CC1(C)N=C(N)N=C(N)N1c1ccc(CCCCc2ccc(Cl)cc2Cl)cc1
T/C (endpoint: mean tumor weight, dose: 1.25 mg/kg/injection, schedule: Q01DX011 (ip), vehicle: saline, higher = larger tumour): 65 % of control
T/C (endpoint: mean tumor weight, dose: 2.5 mg/kg/injection, schedule: Q01DX011 (ip), vehicle: saline, higher = larger tumour): 71 % of control
T/C (endpoint: mean tumor weight, dose: 5.0 mg/kg/injection, schedule: Q01DX011 (ip), vehicle: saline, higher = larger tumour): 31 % of control
T/C (endpoint: mean tumor weight, dose: 10.0 mg/kg/injection, schedule: Q01DX011 (ip), vehicle: saline, higher = larger tumour): 65 % of control
T/C [1]: 110 % of control
T/C (endpoint: median survival time, dose: 2.5 mg/kg/injection, schedule: Q01DX011 (ip), vehicle: saline, higher = longer survival): 93 % of control
T/C (endpoint: median survival time, dose: 5.0 mg/kg/injection, schedule: Q01DX011 (ip), vehicle: saline, higher = longer survival): 104 % of control
T/C (endpoint: median survival time, dose: 10.0 mg/kg/injection, schedule: Q01DX011 (ip), vehicle: saline, higher = longer survival): 91 % of control

CC(C)S(=O)(=O)/C(Cl)=C(/Cl)C(Cl)=C(Cl)Cl
T/C (endpoint: mean tumor weight, dose: 25.0 mg/kg/injection, schedule: Q01DX011 (ip), vehicle: sodium bicarbonate, higher = larger tumour): 111 % of control
T/C (endpoint: mean tumor weight, dose: 50.0 mg/kg/injection, schedule: Q01DX011 (ip), vehicle: sodium bicarbonate, higher = larger tumour): 117 % of control
T/C (endpoint: mean tumor weight, dose: 100.0 mg/kg/injection, schedule: Q01DX011 (ip), vehicle: sodium bicarbonate, higher = larger tumour): 100 % of control
T/C (endpoint: median survival time, dose: 50.0 mg/kg/injection, schedule: Q01DX011 (ip), vehicle: sodium bicarbonate, higher = longer survival): 87 % of control

CN1CCN(c2ccc([N+](=O)[O-])c3no[n+]([O-])c23)CC1
T/C (endpoint: median survival time, dose: 10.0 mg/kg/injection, schedule: Q02DX011 (ip), vehicle: saline with Tween-80, higher = longer survival): 105 % of control
T/C (endpoint: median survival time, dose: 20.0 mg/kg/injection, schedule: Q02DX011 (ip), vehicle: saline with Tween-80, higher = longer survival): 94 % of control

NCC(=O)c1ccc(O)c(O)c1
T/C (endpoint: mean tumor weight (est.), dose: 100.0 mg/kg/injection, schedule: Q01DX011 (ip), vehicle: saline, higher = larger tumour): 76 % of control
T/C (endpoint: mean tumor weight (est.), dose: 200.0 mg/kg/injection, schedule: Q01DX011 (ip), vehicle: saline, higher = larger tumour): 58 % of control
T/C (endpoint: median survival time, dose: 200.0 mg/kg/injection, schedule: Q01DX011 (ip), vehicle: saline, higher = longer survival): 96 % of control
